Converted amounts (≈) assume the structure as drawn. Like-named read-outs stand apart in the source and are kept apart here.
Tests used:
NRP Mtb H37Rv cells = assay: Low-oxygen recovery assay (LORA) MIC; format: cell-based, Mycobacterium tuberculosis; details: for MIC: Mycobacterium tuberculosis, H37RV, NRP Mtb, Tables 1-4 and text, read-out: LORA MIC - ITR
Mtb H37Rv [1] = assay: TB MIC - ITR (UIC), Institute for Tuberculosis Research; format: cell-based, Mycobacterium tuberculosis; details: for MIC: Mycobacterium tuberculosis, H37RV, Tables 1-4, read-out: TB MIC - ITR
Mtb H37Rv [2] = assay: TB MIC - SRI, resazurin-based microplate assay; format: cell-based, Mycobacterium tuberculosis; details: Mycobacterium tuberculosis, H37RV
[3] = Tables P1-P3, read-out: TB MIC - SRI
[4] = Tables 1-4 and text, read-out: TB MIC - SRI

[O-][n+]1nc(N[C@@H]2C[C@H]3CC[C@@H]2C3)[n+]([O-])c2ccc(Cl)cc21 (racemic) [SRI-012305]
LORA MIC (NRP Mtb H37Rv cells; Tables P1, P2, non-replicating M. tuberculosis): 0.2 µg/mL
TB MIC - UIC (Mtb H37Rv [1]; Tables P1, P2): < 0.125 µg/mL
MIC (Mtb H37Rv [2]; [3]): 0.156 µg/mL (≈ 0.509 µM)

C[C@@H]1[C@H]2C[C@@H](C[C@H]1Nc1n[n+]([O-])c3cc(F)ccc3[n+]1[O-])C2(C)C (racemic) [SRI-012402]
MIC (Mtb H37Rv [2]; [3]): 0.312 µg/mL (≈ 0.939 µM)

[O-][n+]1nc(N[C@@H]2C[C@H]3CC[C@@H]2C3)[n+]([O-])c2cc3c(cc21)CCC3 (racemic) [SRI-012404]
VERO Tox-SRI (Vero cells; African green monkey, 72 h): 50
MIC (Mtb H37Rv [2]; [3]): 1.25 µg/mL (≈ 4 µM)

Cc1cccc2c1[n+]([O-])c(N[C@@H]1C[C@H]3CC[C@@H]1C3)n[n+]2[O-] (racemic) [SRI-012461]
VERO Tox-SRI (Vero cells; African green monkey, 72 h): 2.3
MIC (Mtb H37Rv [2]; [3]): 0.156 µg/mL (≈ 0.545 µM)

CSc1c(C)[n+]([O-])c2ccccc2[n+]1[O-] [Cmpd 3]
Vero Tox CC50 (Vero cells): >16 µg/mL

[O-][n+]1nc(NC2CC2)[n+]([O-])c2ccccc21 [Compound 8b, 3-(cyclopropylamino)benzo[e][1,2,4]triazine 1,4-dioxide]
Vero Tox CC50 (Vero cells; African green monkey, 72 h): 21 µg/mL
MIC (Mtb H37Rv [2]; [4]): 2.5 µg/mL (≈ 11.5 µM)

[O-][n+]1nc(NC2CCC2)[n+]([O-])c2ccccc21 [Compound 8d, 3-(cyclobutylamino)benzo[e][1,2,4]triazine 1,4-dioxide]
MIC (NRP Mtb H37Rv cells): 0.84 µg/mL (≈ 3.62 µM)
MIC (Mtb H37Rv [1]): 0.94 µg/mL (≈ 4.05 µM)
MIC (Mtb H37Rv [2]; [4]): 1.2 µg/mL (≈ 5.17 µM)

[O-][n+]1nc(NC2CCCCC2)[n+]([O-])c2ccccc21 [Compound 8f, 3-(cyclohexylamino)benzo[e][1,2,4]triazine 1,4-dioxide]
MIC (NRP Mtb H37Rv cells): 0.75 µg/mL (≈ 2.88 µM)
MIC (Mtb H37Rv [1]): 3.8 µg/mL (≈ 14.6 µM)
MIC (Mtb H37Rv [2]; [4]): 2.5 µg/mL (≈ 9.6 µM)

[O-][n+]1nc(NC2CCCCCC2)[n+]([O-])c2ccccc21 [Compound 8g, 3-(cycloheptylamino)benzo[e][1,2,4]triazine 1,4-dioxide]
MIC (NRP Mtb H37Rv cells): 0.5 µg/mL (≈ 1.82 µM)
MIC (Mtb H37Rv [1]): 1.6 µg/mL (≈ 5.83 µM)
MIC (Mtb H37Rv [2]; [4]): 2.5 µg/mL (≈ 9.11 µM)

CC(C)(C)C1CCC(Nc2n[n+]([O-])c3ccccc3[n+]2[O-])CC1 (centres unmarked) [Compound 8j, 3-((4-(tert-butyl)cyclohexyl)amino)benzo[e][1,2,4]triazine 1,4-dioxide]
MIC (NRP Mtb H37Rv cells): < 0.12 µg/mL
MIC (Mtb H37Rv [1]): 0.22 µg/mL (≈ 0.695 µM)
MIC (Mtb H37Rv [2]; [4]): 0.62 µg/mL (≈ 1.96 µM)

CC(C)CCC(C)Nc1n[n+]([O-])c2ccccc2[n+]1[O-] (centres unmarked) [Compound 8l, 3-((5-methylhexan-2-yl)amino)benzo[e][1,2,4]triazine 1,4-dioxide]
MIC (NRP Mtb H37Rv cells): 0.38 µg/mL (≈ 1.38 µM)
MIC (Mtb H37Rv [1]): 0.52 µg/mL (≈ 1.88 µM)
MIC (Mtb H37Rv [2]; [4]): 1.2 µg/mL (≈ 4.34 µM)

CCNc1n[n+]([O-])c2cc(F)ccc2[n+]1[O-] [Compound 15aa, 3-(ethylamino)-7-fluorobenzo[e][1,2,4]triazine 1,4-dioxide]
MIC (NRP Mtb H37Rv cells): 0.75 µg/mL (≈ 3.35 µM)
MIC (Mtb H37Rv [1]): 0.35 µg/mL (≈ 1.56 µM)
MIC (Mtb H37Rv [2]; [4]): 0.62 µg/mL (≈ 2.77 µM)

[O-][n+]1nc(NC2CCCC2)[n+]([O-])c2ccc(F)cc21 [Compound 15ae, 3-(cyclopentylamino)-7-fluorobenzo[e][1,2,4]triazine 1,4-dioxide]
MIC (NRP Mtb H37Rv cells): 0.34 µg/mL (≈ 1.29 µM)
MIC (Mtb H37Rv [1]): 0.33 µg/mL (≈ 1.25 µM)
MIC (Mtb H37Rv [2]; [4]): 0.31 µg/mL (≈ 1.17 µM)

[O-][n+]1nc(NC2CCCCC2)[n+]([O-])c2ccc(F)cc21 [Compound 15af, 3-(cyclohexylamino)-7-fluorobenzo[e][1,2,4]triazine 1,4-dioxide]
MIC (NRP Mtb H37Rv cells): 0.47 µg/mL (≈ 1.69 µM)
MIC (Mtb H37Rv [1]): 0.68 µg/mL (≈ 2.44 µM)
MIC (Mtb H37Rv [2]; [4]): 0.62 µg/mL (≈ 2.23 µM)

[O-][n+]1nc(NC2CCC2)[n+]([O-])c2ccc(Cl)cc21 [Compound 15bd, 7-chloro-3-(cyclobutylamino)benzo[e][1,2,4]triazine 1,4-dioxide]
MIC (NRP Mtb H37Rv cells): < 0.12 µg/mL
MIC (Mtb H37Rv [2]; [4]): 0.15 µg/mL (≈ 0.562 µM)

CCNc1n[n+]([O-])c2cc(OC)ccc2[n+]1[O-] [Compound 15da, 3-(ethylamino)-7-methoxybenzo[e][1,2,4]triazine 1,4-dioxide]
MIC (NRP Mtb H37Rv cells): 16 µg/mL (≈ 67.7 µM)
MIC (Mtb H37Rv [1]): 15 µg/mL (≈ 63.5 µM)
MIC (Mtb H37Rv [2]; [4]): 2.5 µg/mL (≈ 10.6 µM)

Cc1cccc2c1[n+]([O-])c(NC1CCCC1)n[n+]2[O-] [Compound 15ee, 3-(cyclopentylamino)-5-methylbenzo[e][1,2,4]triazine 1,4-dioxide]
MIC (NRP Mtb H37Rv cells): 0.27 µg/mL (≈ 1.04 µM)
MIC (Mtb H37Rv [1]): 0.43 µg/mL (≈ 1.65 µM)
MIC (Mtb H37Rv [2]; [4]): 0.31 µg/mL (≈ 1.19 µM)

[O-][n+]1nc(N2CCCC2)[n+]([O-])c2ccccc21 [Compound 17q, 3-(pyrrolidin-1-yl)benzo[e][1,2,4]triazine 1,4-dioxide]
Vero Tox CC50 (Vero cells; African green monkey, 72 h): 17 µg/mL
MIC (Mtb H37Rv [2]; Table 5, read-out: MIC, H37Rv): 0.31 µg/mL (≈ 1.33 µM)

CC(C)(C)Nc1n[n+]([O-])c2ccccc2[n+]1[O-] [SRI-003356]
MIC (Mtb H37Rv [2]; read-out: TB MIC - SRI, Tables P1-P3): 1.25 µg/mL (≈ 5.34 µM)

CCN(CC)c1n[n+]([O-])c2ccccc2[n+]1[O-] [SRI-009728]
TB MIC - UIC (Mtb H37Rv [1]; Table P3): 12.4 µg/mL
MIC (Mtb H37Rv [2]; [3]): 0.312 µg/mL (≈ 1.33 µM)

Nc1n[n+]([O-])c2cc(Br)ccc2[n+]1[O-] [SRI-012396]
MIC (Mtb H37Rv [2]; [3]): 1.25 µg/mL (≈ 4.86 µM)

Cc1cccc2c1[n+]([O-])c(N)n[n+]2[O-] [SRI-012397]
MIC (Mtb H37Rv [2]; [3]): 0.625 µg/mL (≈ 3.25 µM)
